Source: patent publication US5028586A, “Insulin derivatives and pharmaceutical preparations containing these derivatives” (Novo Norkisk A/S, priority 1985, dated 1991)

System: guinea pigs
Assay: Protracted hypoglycemia in guinea pigs after subcutaneous injection of insulin derivative preparations
Assay type: in vivo
Experimental: 25 ml of a medium containing 1.6 %(w/v) of glycerol. 0.33 % (w/v) of m-cresol, 1/75 M of sodium phosphate, pH value 7.3, were prepared. The solution was sterilized by filtration. 1.5 mg of human insulin-B21-methyl ester, prepared as described in Example 1, were suspended in 1.0 ml of medium.
4.5 mg of human insulin-A17-methyl ester were dissolved in 2.7 ml of 0.015 M phosphoric acid. 21 mg of sodium chloride and 4.1 μliters of an aqueous solution of 152 mM zinc chloride were added. The solution was sterilized by filtration. The pH value of the solution was adjusted to 8.0 under aseptic conditions with a sterile aqueous solution of sodium hydroxide. The pH value of the solution was then readjusted to 7.3 with sterile hydrochloric acid, and rhombohedral crystals with a mean size of 10 μm were formed with gentle stirring at 21° C. The volume was adjusted to 3 ml with sterile water.
Moreover, a sterile solution of 3 ml of 13.5 mM phosphoric acid in admixture with 21 mg of sodium chloride and 9 μliters of m-cresol was prepared, and the pH value was adjusted to 7.3 with a sterile aqueous solution of sodium hydroxide. The two solutions were combined.
15 mg of human insulin-A4-gln, obtained as described in Example 5, was dissolved in 10 ml of a solution containing 13.5 mM phosphoric acid, 0.3 % m-cresol and 1.6 % glycerol. The solution was sterilized by filtration, and the pH value was adjusted to 9,0 with a sterile solution of sodium hydroxide. The pH value was readjusted to 8.2 with a sterile solution of hydrochloric acid, and human insulin-A4-gln crystallized as rhombohedral crystals with gentle stirring.

Question: What does the source list for human insulin-A17-methyl ester?
Answer: biological activity (area below the blood glucose curve) compared with human insulin (dosage 18 μg/kg, crystalline zinc preparation): nearly the same biological activity as human insulin; protracted insulin action compared with "Insulatard" (dosage 18 μg/kg, crystalline zinc preparation, comparator "Insulatard"): longer than the protracted action of the known injection preparation; hypoglycemia induced (dosage 18 μg/kg, crystalline zinc preparation, pH 7.3): strongly protracted hypoglycemia

Question: Which “protracted hypoglycemic effect compared with "Insulatard"” value (subcutaneous injection of crystalline suspension at 0.5 IU/kg, "Insulatard" at 0.5 IU/kg) does the source give for human insulin-A4-gln here?
Answer: nearly identical both in timing and amplitude

Question: How did the “protracted insulin action compared with "Insulatard"” value (subcutaneous, zinc-free preparation, comparator standard protamin insulin preparation "Insulatard") turn out when human insulin-B21-methyl ester was run?
Answer: comparable to the hypoglycemia observed after injection of a standard protamin insulin preparation

Question: What about the “hypoglycemia after subcutaneous administration” value (subcutaneous, zinc-free suspension 1.5 mg in 1.0 ml medium, pH 7.3) of the same substance?
Answer: protracted hypoglycemia was observed
